Values joined by “and” are separate entries in the source; they are usually repeats but may differ in a detail not shown here. Identical values can stand only once.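 Briefly, cells in 96-well plates were exposed to five compound concentrations for 48 h, and endpoints were estimated by linear interpolation. Here, GI50 denotes the concentration required for 50% inhibition of growth. TGI: concentration producing complete growth inhibition.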
Assays:
Test in all cases: growth of human tumour cells (NCI), 48 h
[1] = tested on: RPMI-8226 leukemia
[2] = tested on: SNB-75 CNS
[3] = tested on: UACC-257 melanoma
[4] = tested on: MDA-MB-435
[5] = tested on: OVCAR-4 ovarian
[6] = tested on: RXF 393 renal
[7] = tested on: SK-MEL-2 melanoma
[8] = tested on: BT-549 breast
[9] = tested on: HCT-15 colon
[10] = tested on: NCI-H23 lung

Row | Compound | GI50 [1] | TGI [1] | GI50 [2] | TGI [2] | GI50 [3] | TGI [3] | GI50 [4] | TGI [4] | GI50 [5] | TGI [5] | GI50 [6] | TGI [6] | GI50 [7] | TGI [7] | GI50 [8] | TGI [8] | GI50 [9] | TGI [9] | GI50 [10] | TGI [10]
1 | O=C(O)c1ccc2c3c(ncnc13)-c1ccccc1C2=O | 51.3 µM | > 88.7 µM | 3.21 µM | > 21 µM | 8.6 µM | > 100 µM | 1.72 µM | 3.59 µM | > 100 µM | > 100 µM | > 47.2 µM | > 100 µM | 20.7 µM | > 100 µM | 2.51 µM | > 29.9 µM | 2.47 µM | > 48 µM | 0.796 µM | 3.05 µM
2 | Cc1cccc(Cl)c1NC(=O)c1cnc(Nc2cc(N3CCOCC3)cc(N3CCOCC3)c2)s1 | > 6.24 µM | > 10 µM | 0.00147 µM | 0.0176 µM | > 7.93 µM | > 10 µM | 4.08 µM | > 10 µM | > 4.05 µM | > 10 µM | 0.0123 µM | 0.153 µM | > 5.25 µM | > 10 µM | > 4.46 µM | > 10 µM | 0.39 µM | > 10 µM | > 9.24 µM | > 10 µM
3 | Cn1c(/C=C(\C#N)c2cccc(C(F)(F)F)c2)nc2c(N3CCOCC3)nc(Cl)nc21 | 0.252 µM | 0.802 µM | 0.159 µM | 1.15 µM | 1.37 µM | 2.89 µM | 1.02 µM | 2.43 µM | 1 µM | 2.41 µM | 0.613 µM | 1.93 µM | 1.47 µM | 2.96 µM | 0.569 µM | 1.96 µM | 0.221 µM | 0.61 µM | 1.49 µM | 3.18 µM
4 | CN[C@@H]1C[C@H]2O[C@@](C)([C@@H]1OC)n1c3ccccc3c3c4c(c5c6ccccc6n2c5c31)C(=O)N[C@H]4O | 0.186 µM | 1.49 µM | 0.00564 µM | 0.0412 µM | 0.0794 µM | 2.57 µM | 0.0613 µM | 2.56 µM | 0.125 µM | > 10 µM | – | 0.0534 µM | 0.0358 µM | 0.853 µM | 0.0683 µM | 0.617 µM | 0.157 µM | > 3.31 µM | 0.0285 µM | 0.847 µM
5 | COc1ccc2c(c1)c1nc3cc(C)c(C)cc3nc1n2CCN(C)C | 0.453 µM | 2.35 µM | 1.29 µM | 4.14 µM | 1.26 µM | 3.17 µM | 1.09 µM | 2.51 µM | 1.03 µM | 2.43 µM | 1.22 µM | 2.88 µM | 1.46 µM | 3.29 µM | 1.7 µM | 3.49 µM | 0.417 µM | 1.77 µM | 1.02 µM | 2.88 µM
6 | Clc1cccc(N2CCN(CCN3CCc4c([nH]c5ccccc45)C3c3cccnc3)CC2)c1 (stereo unspecified) | – | > 84.1 µM | – | > 76.4 µM | – | > 100 µM | – | > 100 µM | – | > 100 µM | – | > 100 µM | – | > 100 µM | – | > 100 µM | – | > 100 µM | – | > 100 µM
7 | COc1cc2c(cc1OC)-c1ccc3cc4c(cc3c1N(CCN(C)C)C2)OCO4 | 0.221 µM | 1.36 µM | 0.35 µM | 6 µM | 2.43 µM | 16.5 µM | – | 17.6 µM | 0.911 µM | 13.3 µM | 0.848 µM | 2.89 µM | 3.36 µM | 16.7 µM | 1.15 µM | 11.9 µM | 4.09 µM | 17.6 µM | 0.393 µM | 2.96 µM
8 | OC(C1CO1)C(O)C1CO1 (stereo unspecified) | 84 µM | 150 µM and 861 µM | 32.2 µM | 116 µM and 166 µM | 56.1 µM | 141 µM and 244 µM | 46.1 µM | 150 µM and 246 µM | 134 µM | 150 µM and 299 µM | 71.4 µM | 139 µM and 231 µM | 137 µM | 116 µM and 345 µM | 29.5 µM | 84.7 µM and 299 µM | – | 131 µM and 406 µM | 36.4 µM | 90 µM and 369 µM
9 | CN1C(=O)C(=Cc2cn(Cc3ccccc3)c3ccccc23)C(=O)N(C)C1=O | 26.9 µM | > 100 µM | 34.2 µM | > 100 µM | 9.82 µM | > 100 µM | > 83.3 µM | > 100 µM | 5.85 µM | > 100 µM | 23.1 µM | > 100 µM | – | > 67.6 µM | 56.5 µM | > 100 µM | > 95.6 µM | > 100 µM | 44.2 µM | > 100 µM
10 | O=C1NC(=O)C(c2ccc(Cl)cc2)=C1Nc1ccc(Cl)c(C(=O)O)c1 | > 25 µM | > 25 µM | > 25 µM | > 25 µM | > 25 µM | > 25 µM | > 25 µM | > 25 µM | > 25 µM | > 25 µM | > 25 µM | > 25 µM | > 25 µM | > 25 µM | > 25 µM | > 25 µM | > 25 µM | > 25 µM | > 25 µM | > 25 µM
11 | CC1(C)CCC[C@]2(C)c3cc(O)ccc3CC[C@@H]12 | 12.3 µM | 30.4 µM | 12.4 µM | 27.5 µM | 19.6 µM | 36 µM | 6.65 µM | 21 µM | 16.6 µM | 33.6 µM | 16.1 µM | 35.1 µM | 20.1 µM | 43 µM | 19.4 µM | 33.5 µM | 17.1 µM | 35.2 µM | 17.3 µM | 34.3 µM
12 | C[n+]1c2ccccc2c(Nc2ccc(NS(=O)(=O)CCCCN=C(N)N)cc2)c2ccc(N)cc21 | 1.43 µM | 23.3 µM | 1.48 µM | > 100 µM | 21.7 µM | > 95.6 µM | 20.4 µM | > 100 µM | 5.4 µM | > 100 µM | 15.7 µM | > 70.8 µM | 18.5 µM | 50.6 µM | 35.2 µM | > 100 µM | 50.9 µM | > 100 µM | 0.152 µM | 90.4 µM
13 | Clc1ccc(C(c2ccc(Cl)cc2)N2CCNCC2)cc1 | – | 4.66 µM | – | 5.78 µM | – | 4.62 µM | – | 3.63 µM | – | 6.95 µM | – | 9.75 µM | – | 3.63 µM | – | 38.3 µM | – | 8.79 µM | – | 21.6 µM
14 | COc1ccc2nc(NCN3C(=O)c4ccccc4C3=O)sc2c1 | – | > 100 µM | – | > 100 µM | – | > 100 µM | – | > 100 µM | – | > 100 µM | – | > 100 µM | – | > 100 µM | – | > 100 µM | – | > 100 µM | – | > 100 µM
15 | c1cncc(-c2nc3ccccc3s2)c1 | 99.4 µM | > 100 µM | 58.4 µM | > 100 µM | > 100 µM | > 100 µM | > 100 µM | > 100 µM | > 100 µM | > 100 µM | 64.7 µM | > 100 µM | > 100 µM | > 100 µM | 74 µM | > 100 µM | > 100 µM | > 100 µM | > 100 µM | > 100 µM
16 | N#Cc1ccc(C2C3=C(CCCC3=O)OC3=C2C(=O)c2ccccc2C3=O)cc1 (stereo unspecified) | 2.3 µM | 7.12 µM | 1.35 µM | 2.65 µM | 1.55 µM | 2.94 µM | 0.216 µM | 0.444 µM | 0.265 µM | 1.07 µM | 1.86 µM | 3.59 µM | 1.35 µM | 3.33 µM | 1.56 µM | 2.92 µM | 1.6 µM | 3.71 µM | 1.25 µM | 5.03 µM
17 | COc1ccc(-c2cn(-c3cccc(C(=O)/C=C/c4ccc(O)c(OC)c4)c3)c(=O)[nH]2)cc1 | 1.35 µM | 3.68 µM | 4.75 µM | > 80.2 µM | 8.03 µM | 39.3 µM | 3.19 µM | > 62.2 µM | 4.03 µM | > 24.4 µM | 5.85 µM | 28.6 µM | 4.72 µM | > 58.1 µM | 3.32 µM | 22.8 µM | 2.64 µM | 32.8 µM | 3.57 µM | 25.2 µM
18 | CCN(CC)CCCC(C)Nc1c2ccc(Cl)cc2nc2cc(OC)c(OC)cc12 (stereo unspecified) | 2.47 µM | 6.66 µM | 1.31 µM | 2.6 µM | 2.23 µM | 4.1 µM | 1.65 µM | 3.08 µM | 1.34 µM | 3.33 µM | 1.3 µM | 2.67 µM | 2.64 µM | 5.73 µM | 3.87 µM | 17.8 µM | 1.2 µM | 3.49 µM | 1.48 µM | 3.25 µM
19 | O=C1c2cc(-c3ccccc3)ccc2-c2c1c1ccc([N+](=O)[O-])cc1c(=O)n2CCCBr | > 32.8 µM | > 50 µM | 15.1 µM | > 26.2 µM | > 50 µM | > 50 µM | > 50 µM | > 50 µM | > 50 µM | > 50 µM | > 26.3 µM | > 43.7 µM | > 50 µM | > 50 µM | > 50 µM | > 50 µM | > 50 µM | > 50 µM | > 50 µM | > 50 µM
20 | O=C(O)c1ccc([S-])cc1.[Au+].c1ccc(CN2[CH-]N(Cc3ccccc3)C(c3ccccc3)=C2c2ccccc2)cc1 | 0.323 µM | 2 µM | 0.298 µM | 1.51 µM | 0.283 µM | 1.2 µM | 0.417 µM | 1.46 µM | 0.373 µM | 1.3 µM | 0.305 µM | 1.13 µM | 0.346 µM | 1.21 µM | 0.318 µM | 1.42 µM | 1.04 µM | 2.55 µM | 0.314 µM | 1.21 µM
21 | CC(=O)OCc1ccc(O)c(C=O)c1 | – | > 100 µM | – | > 100 µM | – | > 100 µM | – | > 100 µM | – | > 100 µM | – | > 100 µM | – | > 100 µM | – | > 100 µM | – | > 100 µM | – | > 100 µM
22 | Cc1ccc(C(=O)/C(=C\c2ccc([N+](=O)[O-])cc2)S(=O)Cc2ccc(F)cc2)cc1 (stereo unspecified) | 1.02 µM | 4.33 µM | 1.47 µM | 3.1 µM | 1.93 µM | 3.69 µM | 1.76 µM | 3.65 µM | 1.73 µM | 3.54 µM | 1.78 µM | 3.28 µM | 2.1 µM | 5.2 µM | 1.52 µM | 2.88 µM | 1.45 µM | 3.5 µM | 1.69 µM | 3.36 µM
23 | COc1cc2c(cc1OC)C(CC1(O)CCCCC1)N(S(=O)(=O)c1ccc(C)cc1)CC2 (stereo unspecified) | > 10 µM | > 10 µM | > 10 µM | > 10 µM | > 10 µM | > 10 µM | > 10 µM | > 10 µM | > 10 µM | > 10 µM | > 10 µM | > 10 µM | > 10 µM | > 10 µM | > 10 µM | > 10 µM | > 10 µM | > 10 µM | > 10 µM | > 10 µM

Source: PubChem BioAssay (NCI)
